# Several values for one entry are separate records, joined by “and”; a condition that tells them apart may be missing. Equal values may be shown once.
# Assays:
# Assay type in all cases: cell-based
# E. coli LABEC01/Cr5 = test: on-chip time-lapse induction of promoter construct (GFP, gill chip)
# Procedure: (§4) For on-chip induction experiments, strains were loaded into the device and grown in M9 minimal medium with 0.4% glucose and 50 μg/ml spectinomycin (for plasmid maintenance) for 2 days in the absence of toxin. Cells were imaged under 4× brightfield and GFP fluorescence filters on an Olympus IX-81 microscope every 2 min for 6 h under these non-inducing conditions to generate a fluorescence baseline. The toxin was then introduced to induce GFP expression and the cells were imaged every 2 min for 6 h.
# (§5) To determine the response to toxin induction, the raw fluorescence images before and after induction were compared. The image stacks were analyzed using a custom ImageJ script to measure the average GFP signal over time for each cell trap. Any linear trend in the uninduced fluorescence data due to cell growth was subtracted from the data. In this manner, the dynamic signal-to-noise ratio (SNR) was calculated as: (current fluorescence−mean uninduced fluorescence)/(standard deviation of uninduced fluorescence).
# (§6) This microfluidic platform was then used to measure the response of several toxin responsive promoter constructs identified from the literature and synthesized by Transcriptic. […] Note that SNR values greater than 2 indicate a significant response.
# E. coli MG1655/Co7 = test: 8-strain chip induction (fluorescence induction ratio); conditions: toxin at t=0, pure water at t=2 hours; chromium(VI) 0.5 μM
# Description: (§1) An overview of the sensor can be seen in FIG. 39. In order to acquire the large amount of data required to successfully train the classifier, five replicates of the fully self-contained device prototype were built, in which the microfluidic devices are mounted and imaged using custom-designed optics as shown in some embodiments herein (Milestone 6.9). The majority of the data for this project was acquired using a novel microfluidic device capable of housing eight different bacterial strains that receive media from a shared source. […] The design was expanded to house 18 strains and we have begun taking data with this new chip to provide larger datasets to the classifier. A detailed CAD drawing of this device can be seen in FIG. 56. The 18 cell trapping regions are vacuum-loaded from 18 downstream fluidic ports. Long, serpentine channels upstream of the trapping regions serve as fluidic buffer zones to prevent the cross-contamination of strains while loading. The toxin concentration is controlled dynamically by a peristaltic pump that mixes a water/toxin combination (representing the source water stream) with a concentrated medium stock.
# (§2) In each panel, the time series data for the “on-target” responding strain is plotted in bold.
# E. coli MG1655/Cr11 = test: as above; conditions: toxin at t=0, pure water at t=2 hours; chromium(VI) 0.5 μM
# Description: as §1, §2
# E. coli MG1655/As3 = test: on-chip time-lapse induction of promoter construct (GFP, gill chip)
# Description: The on-chip time-lapse induction response of each promoter construct in this table can be seen in FIG. 36. In each figure panel, the moment of toxin introduction is represented as a step in the red trace.
# [1] = system: E. coli MG1655 containing pRS18; test: on-chip step-induction of arsenic-sensing plasmid pRS18 (GFP); conditions: pRS18 in E. coli MG1655, M9 + 0.4% glucose
# Description: Induction of pRS18, an arsenic-sensing plasmid, was first tested in the microfluidic device. A recombinant strain of E. coli MG1655 containing pRS18 was vacuum loaded into the microfluidic device, grown to confluence, and step-induced with sodium ortho-arsenite (Na3AsO3) in M9 minimal medium supplemented with 0.4% glucose. Images were collected using a Nikon Ti microscope with 4× objective magnification. Step induction was executed using the gravity-driven “Dial-AWave” automated flow control system to mix two medium sources in a defined ratio. The cells were sequentially exposed to arsenic concentrations of 0 μM, 0.1 μM, 0.5 μM, and 1 μM in 6-h windows, allowing time for the cells to respond to each concentration increase. […] We believe that the rise in GFP expression prior to the induction step is due to a small leak of inducer into the medium stream. Average fluorescence within the trapping regions of the images as well as arsenic concentration is plotted over time in FIG. 47C.
# E. coli MG1655/As7 = test: 8-strain chip induction (fluorescence induction ratio); conditions: toxin at t=0, pure water at t=2 hours; arsenic 0.2 μM
# Description: as §1, §2
# [2] = system: E. coli MG1655 containing pCueCopA; test: on-chip step-induction of copper-sensing plasmid pCueCopA (GFP); conditions: pCueCopA in E. coli MG1655, LB medium
# Procedure: Second, induction of pCue-CopA, a copper-sensing plasmid, was tested in the microfluidic device. A recombinant strain of E. coli MG1655 containing pCueCopA was vacuum-loaded into a microfluidic device, grown to confluence, and step-induced with copper sulfate (CuSO4) in LB medium. Images were collected using an Etaluma LumaScope microscope with 20× objective magnification. Step induction was again performed using the “Dial-A-Wave” automated flow control system. The cells were sequentially exposed to copper concentrations of 0 μM, 25 μM, 52 μM, 77 μM, and 99 μM in 6-h windows.
# E. coli MG1655/Cd1 = test: on-chip time-lapse induction of promoter construct (GFP, gill chip)
# Procedure: as §4, §5, §6
# E. coli LABEC01/Pb2 = test: as above
# Procedure: as §4, §5, §6
# E. coli MG1655/Pb7 = test: 18-strain chip induction
# Description: (§3) In an embodiment herein, the toxin response data across 18 unique sensing strains were also collected using a new chip design that houses 16 E. coli strains and 2 B. subtilis strains. The B. subtilis NCIB 3610/Amm3 construct is a “lights-off” sensor, meaning that GFP production drops when ammonium is introduced, following a slight increase due to faster growth on this preferred nitrogen source. […] By combining these sensor responses, we can identify cobalt by the unique response of Pb7 alone and lead by the unique combination of Zn6, Pb7, and Pb8 responses.
# E. coli MG1655/Pb8 = test: 18-strain chip induction; conditions: Zn6, Pb7, Pb8 in descending magnitude
# Description: as §3
# E. coli MG1655/Zn6 = test: 18-strain chip induction; conditions: Zn6, Pb7, Pb8 in descending magnitude
# Description: as §3
smiles,measurement,setting,value
[Cr+6] [Chromium(VI)],SNR after 6 h,"E. coli LABEC01/Cr5; 5 μM chromium(VI), 6 h induction, SNR > 2 = significant response",5
same,Concentration Sensed in Microfluidic Device,"E. coli LABEC01/Cr5; chrB/pchrB from O. tritici transposon, native RBS",5 µM
same,GFP response of strain Co7,E. coli MG1655/Co7,responding
same,GFP response of strain Cr11,E. coli MG1655/Cr11,responding
[As] [Arsenic],SNR after 6 h,"E. coli MG1655/As3; 0.13 μM arsenic, 6 h induction, SNR > 2 = significant response",33
same,Concentration Sensed in Microfluidic Device,"E. coli MG1655/As3; arsR/parsR from E. coli genome, synthetic RBS",0.13 µM
same,arsenic concentration detected on-chip (GFP),[1],0.1 µM and 0.13 µM
same,GFP response of strain As7,E. coli MG1655/As7,sensitively responding
[Cu] [Copper],copper concentration detected on-chip (GFP),[2],25 µM
[Cd] [Cadmium],SNR after 6 h,"E. coli MG1655/Cd1; 0.04 μM cadmium, 6 h induction, SNR > 2 = significant response",17
same,Concentration Sensed in Microfluidic Device,"E. coli MG1655/Cd1; cadC/pcadC from S. aureus plasmid, native RBS",0.04 µM
[Pb] [Lead],SNR after 6 h,"E. coli LABEC01/Pb2; 7 μM lead, 6 h induction, SNR > 2 = significant response",18
same,Concentration Sensed in Microfluidic Device,"E. coli LABEC01/Pb2; pbrR/ppbrR from C. metallidurans plasmid, synthetic RBS",7 µM
same,GFP response of strain Pb7,E. coli MG1655/Pb7,respond sensitively
same,GFP response of strain Pb8,E. coli MG1655/Pb8,respond sensitively
same,GFP response of strain Zn6,E. coli MG1655/Zn6,respond sensitively
